Test results: US10479784B2, “Substituted pyrazin-2-amines as inhibitors of ATR kinase” (Vertex Pharmaceuticals Incorporated, priority 2008, dated 2019)

target: full-length ATR (Homo sapiens (Human), UniProt Q13535); experiment: ATR Inhibition Assay (radioactive-phosphate incorporation); format: biochemical; conditions: read-out: ATR Ki
Outline: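 Ki(app) was derived by non-linear regression of background-corrected initial rates of 33P incorporation into an 800 μM target peptide, read by phosphocellulose filter scintillation counting. Reaction conditions: 5 nM full-length ATR, 10 μM [γ-33P]ATP, pH 7.5 Tris buffer with MgCl2 and DTT, 25 °C, 10-min preincubation, 24 h run.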

Sequence of full-length ATR (Q13535 whole entry): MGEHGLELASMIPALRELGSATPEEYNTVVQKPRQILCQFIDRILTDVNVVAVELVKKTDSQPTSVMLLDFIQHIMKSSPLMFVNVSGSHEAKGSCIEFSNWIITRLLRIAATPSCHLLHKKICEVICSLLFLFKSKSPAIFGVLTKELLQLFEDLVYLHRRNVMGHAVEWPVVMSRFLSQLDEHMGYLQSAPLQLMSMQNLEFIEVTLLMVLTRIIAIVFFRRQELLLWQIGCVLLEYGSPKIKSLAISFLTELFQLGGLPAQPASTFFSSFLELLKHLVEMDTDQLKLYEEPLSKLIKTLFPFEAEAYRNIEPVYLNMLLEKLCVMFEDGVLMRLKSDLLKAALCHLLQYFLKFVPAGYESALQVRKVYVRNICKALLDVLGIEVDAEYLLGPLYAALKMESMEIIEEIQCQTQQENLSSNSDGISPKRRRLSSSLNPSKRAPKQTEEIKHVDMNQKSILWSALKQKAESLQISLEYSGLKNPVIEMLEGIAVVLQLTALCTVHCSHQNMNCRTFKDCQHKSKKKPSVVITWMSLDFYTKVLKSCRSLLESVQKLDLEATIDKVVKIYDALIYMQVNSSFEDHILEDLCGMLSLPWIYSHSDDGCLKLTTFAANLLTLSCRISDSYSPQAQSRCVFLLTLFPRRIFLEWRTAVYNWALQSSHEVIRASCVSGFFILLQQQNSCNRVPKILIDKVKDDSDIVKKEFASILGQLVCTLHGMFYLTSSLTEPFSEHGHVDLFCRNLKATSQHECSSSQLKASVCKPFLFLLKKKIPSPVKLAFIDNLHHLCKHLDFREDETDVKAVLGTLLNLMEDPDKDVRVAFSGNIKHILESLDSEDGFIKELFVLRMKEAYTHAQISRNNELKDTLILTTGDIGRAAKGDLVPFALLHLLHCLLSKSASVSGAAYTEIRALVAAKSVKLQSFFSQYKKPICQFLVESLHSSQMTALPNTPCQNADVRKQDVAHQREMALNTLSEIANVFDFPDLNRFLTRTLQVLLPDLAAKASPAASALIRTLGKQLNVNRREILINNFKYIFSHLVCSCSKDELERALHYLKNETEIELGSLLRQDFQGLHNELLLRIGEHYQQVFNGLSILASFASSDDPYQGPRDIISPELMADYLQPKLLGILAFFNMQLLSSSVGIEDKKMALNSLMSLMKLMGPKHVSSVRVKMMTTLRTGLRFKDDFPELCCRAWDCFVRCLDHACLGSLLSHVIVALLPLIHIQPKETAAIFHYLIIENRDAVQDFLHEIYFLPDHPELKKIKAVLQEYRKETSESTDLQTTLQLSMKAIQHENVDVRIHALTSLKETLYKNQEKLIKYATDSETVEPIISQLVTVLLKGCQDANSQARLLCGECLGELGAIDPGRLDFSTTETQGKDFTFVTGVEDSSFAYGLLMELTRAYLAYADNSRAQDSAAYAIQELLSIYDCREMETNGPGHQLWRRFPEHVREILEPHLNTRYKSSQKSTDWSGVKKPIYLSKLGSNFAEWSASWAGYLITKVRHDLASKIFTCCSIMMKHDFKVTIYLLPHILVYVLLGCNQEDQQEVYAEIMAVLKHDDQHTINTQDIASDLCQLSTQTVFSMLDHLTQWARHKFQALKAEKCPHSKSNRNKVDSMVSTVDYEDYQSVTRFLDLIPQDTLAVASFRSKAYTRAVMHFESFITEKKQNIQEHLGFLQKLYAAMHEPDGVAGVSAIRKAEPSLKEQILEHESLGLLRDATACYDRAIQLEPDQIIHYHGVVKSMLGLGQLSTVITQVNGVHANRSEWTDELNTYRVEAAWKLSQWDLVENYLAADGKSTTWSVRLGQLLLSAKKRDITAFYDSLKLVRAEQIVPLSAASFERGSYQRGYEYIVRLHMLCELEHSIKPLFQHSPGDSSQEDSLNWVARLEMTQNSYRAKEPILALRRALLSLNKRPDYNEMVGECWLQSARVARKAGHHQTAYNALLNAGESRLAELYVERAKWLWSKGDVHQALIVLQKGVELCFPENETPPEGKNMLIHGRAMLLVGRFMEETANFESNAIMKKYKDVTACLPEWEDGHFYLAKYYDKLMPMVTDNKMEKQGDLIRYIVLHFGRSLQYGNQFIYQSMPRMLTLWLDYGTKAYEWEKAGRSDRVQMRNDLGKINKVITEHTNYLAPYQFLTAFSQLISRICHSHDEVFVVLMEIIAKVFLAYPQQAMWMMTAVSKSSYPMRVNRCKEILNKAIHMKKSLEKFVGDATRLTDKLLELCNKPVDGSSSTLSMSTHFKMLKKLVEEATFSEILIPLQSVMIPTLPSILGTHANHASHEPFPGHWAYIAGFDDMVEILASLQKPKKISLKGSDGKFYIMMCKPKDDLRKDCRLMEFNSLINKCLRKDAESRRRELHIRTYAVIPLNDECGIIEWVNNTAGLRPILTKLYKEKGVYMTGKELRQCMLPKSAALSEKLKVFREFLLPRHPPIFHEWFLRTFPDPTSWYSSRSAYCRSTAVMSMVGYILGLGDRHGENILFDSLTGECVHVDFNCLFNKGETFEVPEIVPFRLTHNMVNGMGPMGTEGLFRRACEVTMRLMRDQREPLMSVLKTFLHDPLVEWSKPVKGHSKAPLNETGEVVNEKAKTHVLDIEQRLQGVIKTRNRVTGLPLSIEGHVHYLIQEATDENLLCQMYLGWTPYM

`Nc1ncc(-c2ccc(C(=O)N3CCNCC3)c(F)c2)nc1-c1nnc(-c2ccccc2)o1` [IA-7] and `Nc1ncc(-c2ccc(C(=O)N3CCCNCC3)nc2)nc1-c1nnc(-c2ccccc2)o1` [IA-47] cannot be ordered by Ki: 10 to 100 nM for the first, no more than 10 nM for the second.

`CS(=O)(=O)c1ccc(-c2cnc(N)c(-c3nc4ccccc4s3)n2)cc1` [Compound I-146, 3-(benzo[d]thiazol-2-yl)-5-(4-(methylsulfonyl)phenyl)pyrazin-2-amine] and `COc1ccc2nc(-c3nc(-c4ccc(S(C)(=O)=O)cc4)cnc3N)[nH]c2c1` [Compound I-115, 3-(6-methoxy-1H-benzo[d]imidazol-2-yl)-5-(4-(methylsulfonyl)phenyl) pyrazin-2-amine] fall in the same range of Ki: 10 to 100 nM for the first, 10 to 100 nM for the second.

Compared with `CN(C)CCCOc1ccc(-c2cnc(N)c(-c3nnc(-c4ccccc4)o3)n2)cn1` [IA-279, 5-[6-[3-(dimethylamino)propoxy]-3-pyridyl]-3-(5-phenyl-1,3,4-oxadiazol-2-yl)pyrazin-2-amine], `CN(C)CCOc1cc(-c2cnc(N)c(-c3nnc(-c4ccccc4)o3)n2)ccn1` [IA-165, 5-[2-(2-dimethylaminoethyloxy)-4-pyridyl]-3-(5-phenyl-1,3,4-oxadiazol-2-yl)pyrazin-2-amine] is lower in Ki: 100 to 5000 nM for the first, 10 to 100 nM for the second. The second binds more tightly here.

First: COC1CN(C(=O)c2cccc(-c3cnc(N)c(C(=O)Nc4ccccc4)n3)c2)C1 [Compound I-60, 3-amino-6-(3-(3-methoxyazetidine-1-carbonyl)phenyl)-N-phenylpyrazine-2-carboxamide]
Second: Nc1ncc(-c2ccc(C(=O)N3CCC(O)C3)cc2)nc1C(=O)Nc1ccccc1 (stereo not shown) [Compound I-75, 3-amino-6-(4-(3-hydroxypyrrolidine-1-carbonyl)phenyl)-N-phenylpyrazine-2-carboxamide]
The Ki of the first is higher: 100 to 5000 nM for the first, 10 to 100 nM for the second. The second binds more tightly here.

Compared with `CNCc1cccc(NC(=O)c2nc(-c3ccc(S(C)(=O)=O)cc3)cnc2N)c1` [VII-13], `Nc1ncc(-c2ccc(N3CCOCC3)cc2)nc1C(=O)Nc1ccccc1` [Compound I-13, 3-amino-6-(4-morpholinophenyl)-N-phenylpyrazine-2-carboxamide] is higher in Ki: 10 to 100 nM for the first, 100 to 5000 nM for the second.

`CC(=O)OCc1ccc(-c2nnc(-c3nc(-c4ccc(C(=O)N(C)C)cc4)cnc3N)o2)cc1` [IA-131, [4-[5-[3-amino-6-[4-(dimethylcarbamoyl)phenyl]pyrazin-2-yl]-1,3,4-oxadiazol-2-yl]phenyl]methyl acetate] and `CN(C)C(=O)c1ccc(-c2cnc(N)c(-c3nnc(-c4cccc(O)c4)o3)n2)cc1` [IA-85, 4-[5-amino-6-[5-(3-hydroxyphenyl)-1,3,4-oxadiazol-2-yl]pyrazin-2-yl]-N,N-dimethyl-benzamide] fall in the same range of Ki: 10 to 100 nM for the first, 10 to 100 nM for the second.

First: Nc1ncc(-c2cccnc2)nc1C(=O)Nc1cccn2ncnc12 [Compound V-14]
Second: Nc1ncc(-c2ccc(N3CCOCC3)nc2)nc1C(=O)Nc1ccccc1 [Compound I-34, 3-amino-6-(6-morpholinopyridin-3-yl)-N-phenylpyrazine-2-carboxamide]
The Ki of the first is higher: 100 to 5000 nM for the first, 10 to 100 nM for the second.

`CNCc1ccc(-c2nnc(-c3nc(-c4ccc(S(=O)(=O)C(C)C)c(F)c4)cnc3N)o2)c(F)c1` [IA-321, 5-(3-fluoro-4-isopropylsulfonyl-phenyl)-3-[5-[2-fluoro-4-(methylaminomethyl)phenyl]-1,3,4-oxadiazol-2-yl]pyrazin-2-amine] and `CCC(C)S(=O)(=O)c1ccc(-c2cnc(N)c(-c3nnc(-c4ccc(CNC)cc4F)o3)n2)cc1` (stereo not shown) [IA-338, 3-[5-[2-fluoro-4-(methylaminomethyl)phenyl]-1,3,4-oxadiazol-2-yl]-5-(4-sec-butylsulfonylphenyl)pyrazin-2-amine] cannot be ordered by Ki: no more than 10 nM for the first, no more than 10 nM for the second.

`Cc1ccc(-c2nnc(-c3nc(-c4ccc(C(=O)N(C)C)cc4)cnc3N)o2)s1` [IA-245, 4-[5-amino-6-[5-(5-methyl-2-thienyl)-1,3,4-oxadiazol-2-yl]pyrazin-2-yl]-N,N-dimethyl-benzamide] and `CN(C)C(=O)c1ccc(-c2cnc(N)c(-c3nnc(-c4ccccc4-c4ccsc4)o3)n2)cc1` [IA-127, 4-[5-amino-6-[5-[2-(3-thienyl)phenyl]-1,3,4-oxadiazol-2-yl]pyrazin-2-yl]-N,N-dimethyl-benzamide] fall in the same range of Ki: 10 to 100 nM for the first, 10 to 100 nM for the second.

`CC(C)Sc1ccccc1-c1cnc(N)c(-c2nnc(-c3ccccc3)o2)n1` [IA-229, 5-(2-isopropylsulfanylphenyl)-3-(5-phenyl-1,3,4-oxadiazol-2-yl)pyrazin-2-amine] and `CCc1ccccc1-c1cnc(N)c(-c2nnc(-c3ccccc3)o2)n1` [IA-57] fall in the same range of Ki: 100 to 5000 nM for the first, 100 to 5000 nM for the second.

Compared with `Nc1ncc(-c2ccccc2CCO)nc1-c1nnc(-c2ccccc2)o1` [IA-137, 2-[2-[5-amino-6-(5-phenyl-1,3,4-oxadiazol-2-yl)pyrazin-2-yl]phenyl]ethanol], `C=Cc1ccccc1-c1cnc(N)c(-c2nnc(-c3ccccc3)o2)n1` [IA-253, 3-(5-phenyl-1,3,4-oxadiazol-2-yl)-5-(2-vinylphenyl)pyrazin-2-amine] is higher in Ki: 10 to 100 nM for the first, 100 to 5000 nM for the second. The first binds more tightly here.

First: Nc1ncc(-c2ccc(NCCN3CCOCC3)nc2)nc1-c1nnc(-c2ccccc2)o1 [IA-72, 5-[6-(2-morpholinoethylamino)-3-pyridyl]-3-(5-phenyl-1,3,4-oxadiazol-2-yl)pyrazin-2-amine]
Second: Nc1ncc(-c2cccnc2)nc1-c1nnc(-c2ccccc2)o1 [IA-64]
The Ki of the first is higher: 100 to 5000 nM for the first, 10 to 100 nM for the second.

`Nc1ncc(-c2ccccc2)nc1-c1nnc(-c2ccccc2)o1` [IA-49] and `CC#Cc1cc(C(=O)N(C)C)ccc1-c1cnc(N)c(-c2nnc(-c3ccccc3)o2)n1` [IA-268, 4-[5-amino-6-(5-phenyl-1,3,4-oxadiazol-2-yl)pyrazin-2-yl]-N,N-dimethyl-3-prop-1-ynyl-benzamide] fall in the same range of Ki: 10 to 100 nM for the first, 10 to 100 nM for the second.

`Nc1ncc(-c2ccc(C(=O)N3CCCNCC3)cc2)nc1C(=O)Nc1ccc2cn[nH]c2c1` [Compound V-4] and `CN1CCN(C(=O)c2ccc(-c3cnc(N)c(C(=O)Nc4ccccc4)n3)cc2)CC1` [Compound I-73, 3-amino-6-(4-(4-methylpiperazine-1-carbonyl)phenyl)-N-phenylpyrazine-2-carboxamide] fall in the same range of Ki: 10 to 100 nM for the first, 10 to 100 nM for the second.

First: CN(C)C(=O)c1ccc(-c2cnc(N)c(-c3nnc(N(C)c4ccccc4)o3)n2)cc1 [IA-250, 4-[5-amino-6-[5-(N-methylanilino)-1,3,4-oxadiazol-2-yl]pyrazin-2-yl]-N,N-dimethyl-benzamide]
Second: CN(C)C(=O)c1ccc(-c2cnc(N)c(-c3nnc(-c4ccccc4OCCNC(=O)OC(C)(C)C)o3)n2)cc1 [IA-175, tert-butyl N-[2-[2-[5-[3-amino-6-[4-(dimethylcarbamoyl)phenyl]pyrazin-2-yl]-1,3,4-oxadiazol-2-yl]phenoxy]ethyl]carbamate]
The Ki of the first is higher: 100 to 5000 nM for the first, no more than 10 nM for the second. The second binds more tightly here.

`CC(C)S(=O)(=O)c1ccc(-c2cnc(N)c(-c3nnc(N)o3)n2)cc1` [IA-270, 5-[3-amino-6-(4-isopropylsulfonylphenyl)pyrazin-2-yl]-1,3,4-oxadiazol-2-amine] and `CC(C)S(=O)(=O)c1ccc(-c2cnc(N)c(-c3nnc(-c4ccc(CN)cc4)o3)n2)cc1` [IA-222, 3-[5-[4-(aminomethyl)phenyl]-1,3,4-oxadiazol-2-yl]-5-(4-isopropylsulfonylphenyl)pyrazin-2-amine] cannot be ordered by Ki: no more than 10 nM for the first, no more than 10 nM for the second.

`N#CCCN1CCN(C(=O)c2ccc(-c3cnc(N)c(C(=O)Nc4ccccc4)n3)cc2)CC1` [Compound I-81, 3-amino-6-(4-(4-(2-cyanoethyl)piperazine-1-carbonyl)phenyl)-N-phenylpyrazine-2-carboxamide] and `CCOC(=O)N1CCN(C(=O)c2ccc(-c3cnc(N)c(-c4nnc(-c5ccccc5)o4)n3)cc2)CC1` [IA-11] cannot be ordered by Ki: no more than 10 nM for the first, 10 to 100 nM for the second.

`CNCc1ccc(-c2nnc(-c3nc(-c4ccc(S(=O)(=O)C(C)CC(C)(C)O)cc4)cnc3N)o2)c(F)c1` (stereo not shown) [IA-328, 4-[4-[5-amino-6-[5-[2-fluoro-4-(methylaminomethyl)phenyl]-1,3,4-oxadiazol-2-yl]pyrazin-2-yl]phenyl]sulfonyl-2-methyl-pentan-2-ol] and `CNC(=N)c1ccc(-c2nnc(-c3nc(-c4ccc(S(=O)(=O)C(C)C)cc4)cnc3N)o2)cc1` [IA-208, 4-[5-[3-amino-6-(4-isopropylsulfonylphenyl)pyrazin-2-yl]-1,3,4-oxadiazol-2-yl]-N-methyl-benzamidine] cannot be ordered by Ki: no more than 10 nM for the first, no more than 10 nM for the second.

`CC(N)c1cccc(-c2nnc(-c3nc(-c4ccc(S(=O)(=O)C(C)C)cc4)cnc3N)o2)c1` (stereo not shown) [IA-282, 3-[5-[3-(1-aminoethyl)phenyl]-1,3,4-oxadiazol-2-yl]-5-(4-isopropylsulfonylphenyl)pyrazin-2-amine] and `CC(C)S(=O)(=O)c1ccc(-c2cnc(N)c(-c3nnc(-c4ccc(C(=N)N)cc4)o3)n2)cc1` [IA-70, 4-[5-[3-amino-6-(4-isopropylsulfonylphenyl)pyrazin-2-yl]-1,3,4-oxadiazol-2-yl]benzamidine] cannot be ordered by Ki: no more than 10 nM for the first, no more than 10 nM for the second.

`Cc1ccc2nc(-c3nc(-c4ccc(C(=O)N5CCNCC5)cc4)cnc3N)[nH]c2c1` [III-3, (4-(5-amino-6-(6-methyl-1H-benzo[d]imidazol-2-yl)pyrazin-2-yl)phenyl)(piperazin-1-yl)methanone] and `CS(=O)(=O)c1cccc(-c2cnc(N)c(-c3nc4ccccc4[nH]3)n2)c1` [Compound I-122, 3-(1H-benzo[d]imidazol-2-yl)-5-(3-(methylsulfonyl)phenyl)pyrazin-2-amine] fall in the same range of Ki: 10 to 100 nM for the first, 10 to 100 nM for the second.

`Cc1ccc2nc(-c3nc(-c4ccc(C(=O)N5CCNCC5)cc4)cnc3N)[nH]c2c1` [Compound I-149, (4-(5-amino-6-(6-methyl-1H-benzo[d]imidazol-2-yl)pyrazin-2-yl)phenyl)(piperazin-1-yl)methanone] and `CNCc1ccc(-c2cc(-c3nc(-c4ccc(S(=O)(=O)C(C)C)cc4)cnc3N)on2)cc1Cl` [IIA-13, 3-[3-[3-chloro-4-(methylaminomethyl)phenyl]isoxazol-5-yl]-5-(4-isopropylsulfonylphenyl)pyrazin-2-amine] cannot be ordered by Ki: 10 to 100 nM for the first, no more than 10 nM for the second.

`C[S+]([O-])c1ccccc1-c1cnc(N)c(-c2nnc(-c3cccc(CN)c3)o2)n1` (stereo not shown) [IA-257, 3-[5-[3-(aminomethyl)phenyl]-1,3,4-oxadiazol-2-yl]-5-(2-methylsulfinylphenyl)pyrazin-2-amine] gave a Ki of no more than 10 nM.
